In general, IC50 refers to the point on the concentration scale where inhibition reaches its midpoint.

Results on one compound are retold here after article PMC12379310 (Virology Journal, 2025).

In the assay the target is human ether-α-go-go related gene (hERG) potassium channel (Kv11.1) (Homo sapiens, UniProt Q12809). Nature of the assay: automated whole-cell patch clamp. Type of assay: cell-based. Background: In patch-clamp work, channel activity is measured electrically.
Sequence of human ether-α-go-go related gene (hERG) potassium channel (Kv11.1) (Q12809 whole entry): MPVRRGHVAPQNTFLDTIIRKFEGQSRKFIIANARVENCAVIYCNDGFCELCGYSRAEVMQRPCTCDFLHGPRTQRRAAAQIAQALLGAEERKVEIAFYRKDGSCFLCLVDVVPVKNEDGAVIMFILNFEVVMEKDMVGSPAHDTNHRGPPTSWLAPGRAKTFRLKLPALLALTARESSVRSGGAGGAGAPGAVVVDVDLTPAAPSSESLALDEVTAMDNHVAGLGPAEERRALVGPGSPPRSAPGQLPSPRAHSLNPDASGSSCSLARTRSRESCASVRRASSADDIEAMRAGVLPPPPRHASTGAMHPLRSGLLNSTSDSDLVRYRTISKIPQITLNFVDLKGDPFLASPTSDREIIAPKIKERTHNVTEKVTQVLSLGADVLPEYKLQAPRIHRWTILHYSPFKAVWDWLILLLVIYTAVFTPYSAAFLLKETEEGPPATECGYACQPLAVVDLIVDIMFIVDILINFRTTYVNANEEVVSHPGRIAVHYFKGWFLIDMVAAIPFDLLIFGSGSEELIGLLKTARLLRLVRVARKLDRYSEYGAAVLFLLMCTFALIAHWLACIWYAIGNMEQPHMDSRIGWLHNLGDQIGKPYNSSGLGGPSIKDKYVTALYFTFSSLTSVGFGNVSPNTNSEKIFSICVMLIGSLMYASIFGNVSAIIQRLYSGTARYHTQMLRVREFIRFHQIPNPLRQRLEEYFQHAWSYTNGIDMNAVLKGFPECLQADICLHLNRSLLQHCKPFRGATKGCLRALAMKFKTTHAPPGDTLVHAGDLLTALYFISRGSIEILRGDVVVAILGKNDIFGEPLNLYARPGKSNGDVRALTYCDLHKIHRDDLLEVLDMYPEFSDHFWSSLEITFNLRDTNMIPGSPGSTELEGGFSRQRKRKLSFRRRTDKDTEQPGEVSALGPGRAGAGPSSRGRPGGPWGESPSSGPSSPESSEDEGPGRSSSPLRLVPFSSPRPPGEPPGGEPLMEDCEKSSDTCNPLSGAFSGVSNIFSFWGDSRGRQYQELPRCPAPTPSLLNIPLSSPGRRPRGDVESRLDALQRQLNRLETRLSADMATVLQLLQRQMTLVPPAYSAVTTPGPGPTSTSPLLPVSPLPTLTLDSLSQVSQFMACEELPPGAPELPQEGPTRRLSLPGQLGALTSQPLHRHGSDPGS

The compound `CCOC(=O)c1c(CSc2ccccc2)n(C)c2cc(Br)c(O)c(CN(C)C)c12` [Arbidol] showed an IC50 of 303 nM.
